According to patent US9966622B2, “Small organic molecule based flow battery” (President and Fellows of Harvard College, priority 2012, dated 2018):
Values after ≈ are worked out from the molar mass of the structure shown. Values joined by “and” are separate entries in the source; they are usually repeats but may differ in a detail not shown here. Equal values may be shown once. Read-outs that look alike come from different tables or passages of the source.

What was measured:
[1] = Half-cell cyclic voltammetry of quinones, E^0 (Example 13); type: physicochemical; settings: 1 mM in 1 M sulfuric acid, pH 0, glassy carbon, 25 mV/s
Procedure: 1 mM solutions of the quinones listed in the following table were prepared in 1 M sulfuric acid solution. The pH of the solutions was 0. Half-cell electrochemical data were recorded using a working electrode consisting of a flat 3 mm diameter disk of glassy carbon, a coiled platinum wire as a counter electrode, and a Ag/AgCl reference electrode. Cyclic voltammograms were recorded using sweep rates of 25 mV/s.

[2] = cited from earlier work
[3] = Half-cell cyclic voltammetry compared with AQDS (Examples 6 and 7); type: physicochemical; settings: 1 mM in 1 M H2SO4; listed as 1,8-(OH)2-AQDS
Aqueous solubility = type: physicochemical; settings: pH 0, aqueous buffer
[4] = Cyclic voltammetry of AQDS on glassy carbon (Example 3); type: physicochemical; settings: 1 mM in 1 M sulfuric acid, glassy carbon disc
Description: AQDS was subjected to half-cell electrochemical measurements. […] The peak separation of 34 mV was close to the 59 mV/n, where n was the number of electrons involved, expected for a two-electron process.

[5] = Rotating disk electrode measurements of AQDS (Example 4); type: physicochemical
Procedure: FIG. 5B is a graph of rotating disk electrode measurements using a glassy carbon electrode in 1 M H2SO4 at eleven rotation rates ranging from 200 (red) to 3600 rpm (dk. green).
FIG. 6 is a Levich plot (current vs. rotation rate) of 1 mM AQDS in 1 M H2SO4. Best fit line has a slope of 0.453(2) μA s^1/2 rad^−1/2.
FIG. 7 is a Koutecký-Levich plot (current^−1 vs. rotation rate^−1/2).
FIG. 8 is a Tafel plot (overpotential vs. log(current)) constructed using the current response in the absence of mass-transport at low overpotentials, extrapolated from the zero-intercept of FIG. 7 (infinite rotation rate). Best fit line is the function y=62(x+4.32). This yields α=0.474(2) and k0=7.2(5)×10^−3 cm s^−1.
The glassy carbon disk in Example 3 was rotated at a variety of rates yields mass-transport limited currents from which the AQDS diffusion coefficient (D=3.8(1)×10^−6 cm^2 s^−1)(compare D in [38]) and kinetic reduction rate constant could be determined (FIGS. 5B, 6, 7, and 8). […] This rate constant was faster than that found for many other species used in flow cells such as V^3+/V^2+, Br2/Br^−, and S4^2−/S2^2− (see Table 2 in [40]). The electrochemical reversibility of the two-electron redox reaction was confirmed by the slope of the Tafel plot (FIG. 8), which gave the transfer coefficient α=0.474, which is close to the value of 0.5 expected for an ideally reversible reaction.

[6] = Stability of AQDS to Br2 / HBr by NMR (Example 12); type: physicochemical; settings: for stability to 2 M / concentrated HBr and Br2: heated to 100° C. for 48 h (two days)
Procedure: 50 mg of 9,10-anthraquinone-2,7-disulfonic acid was dissolved in 0.4 mL of D2O was treated with 100 μL of Br2. The ^1H and ^13C NMR spectra (FIGS. 17A-B and 18A-B) were unchanged from the starting material after standing for 20 hours at 25° C. 50 mg of AQDS was then treated with 1 mL of concentrated HBr and 100 μL of Br2. The reaction was heated to 100° C. for 48 h and evaporated to dryness at that temperature. The resulting solid was fully dissolved in D2O giving unchanged and ^1H and ^13C NMR (FIGS. 17C and 18C); however, the ^1H NMR reference was shifted due to residual acid.

[7] = Pourbaix diagram of AQDS redox couple vs. pH (Example 5); type: physicochemical
Procedure: FIG. 5C is a Pourbaix diagram of AQDS. Solid lines indicate slopes of −59 mV/pH, −30 mV/pH, and 0 mV/pH, corresponding to two-, one-, and zero-proton processes respectively. Dashed lines linearly extrapolate the one- and zero-proton processes to give E^0 values of 18 mV (2 e^−/1 H^+) and −296 mV (2 e^−/0 H^+).
To further understand the AQDS redox behavior, we generated a Pourbaix diagram (FIG. 5C) of the equilibrium potential of the AQDS redox couple vs. pH. Aqueous 1 mM solutions of AQDS disodium salt were prepared and pH buffered using the following chemicals: sulfuric acid (1 M, pH 0), HSO4^−/SO4^2− (0.1 M, pH 1-2), AcOH/AcO^− (0.1 M, pH 2.65-5), H2PO4^−/HPO4^2− (0.1 M, pH 5.3-8), HPO4^2−/PO4^3− (0.1 M, pH 9.28-11.52), and KOH (0.1 M, pH 13). The pH of each solution was adjusted with 1 M H2SO4 or 0.1 M KOH solutions. […] In more basic conditions (7<pH<11), a two-electron, one-proton process occurred, giving a 30 mV/pH slope. The potential became pH-independent at values greater than 11, which indicated a two-electron, zero-proton process.

[8] = Stability of quinone form in aqueous solution, cyclic voltammetry of catechol (Example 1); type: physicochemical; settings: 1 N H2SO4
Description: 1 molal 1,2-ortho-benzohydroquinone (catechol) was oxidized in 1 N H2SO4 at a flat Pt electrode, obtaining the cyclic voltammetry curves shown in FIG. 3A. The sweep starts at (0.2 V, 0 mA/cm^2) and proceeds at 25 mV/s to the right. At about 600 mV vs. Ag/AgCl (the known E^0 is 795 mV vs. SHE), the current density increases as catechol is oxidized to the orthoquinone form. The oxidative current density peaks at about 150 mA/cm^2. The peak and downturn are caused by reactant depletion in a quiescent (non-flowing, non-stirred) electrolyte. In a test at a higher concentration of 3.9 molal (FIG. 3B), we observe asymmetric oxidation and reduction peaks, achieving current densities above 500 mA/cm^2 for the former. The asymmetric shape of the curve in FIG. 3B arises because the quinone form is unstable in aqueous solution. In addition the limited solubility of ortho-benzoquinone (0.06 M) compared to its reduced form precludes symmetric behavior at high concentration.

[9] = aqueous, no source given; cited from earlier work

Molecule | Standard Reduction Potential E^0 in Volts vs. the standard hydrogen electrode (SHE) [1] [Volts] | also measured
O=C1c2cccc(S(=O)(=O)O)c2C(=O)c2cccc(S(=O)(=O)O)c21 [Entry 4, 9,10-anthraquinone-1,5-disulfonic acid] | 0.223 | 
CC1=C(C)C(=O)C(C)=C(C)C1=O [tetramethylbenzoquinone] |  | redox potential ([2]; aqueous, literature values [28], [29]): 0.040 V and 0.068 V
O=C1c2ccc(S(=O)(=O)O)cc2C(=O)c2ccc(S(=O)(=O)O)cc21 [Entry 2, 9,10-anthraquinone-2,6-disulfonic acid] | 0.212 | 
O=C1c2ccc(S(=O)(=O)O)c(O)c2C(=O)c2c1ccc(S(=O)(=O)O)c2O [Entry 7, 1,8-dihydroxy-9,10-anthraquinone-2,7-disulfonic acid] | 0.118 | lowering of reduction potential relative to AQDS [3]: ~100 mV and 95 mV
O=C1c2ccc(S(=O)(=O)O)cc2C(=O)c2cc(S(=O)(=O)O)ccc21 [Entry 1, 9,10-anthraquinone-2,7-disulfonic acid] | 0.213 | solubility (Aqueous solubility): ~1000 mM (≈ 368 mg/mL); peak separation (cyclic voltammetry) [4]: 34 mV; diffusion coefficient D ([5]; 1 mM in 1 M H2SO4, rotating glassy carbon disk): 3.8(1)×10^−6 cm^2 s^−1; kinetic reduction rate constant k0 ([5]; reduction on glassy carbon, 1 M H2SO4): 7.2(5)×10^−3 cm s^−1; stability to 2 M / concentrated HBr and Br2 [6]: no reaction; stability to 2 M / concentrated HBr and Br2 ([6]; listed as 9,10-anthraquinone-2,7-disulfonate): stable; stability to Br2 (1H and 13C NMR spectra) ([6]; in D2O, 20 hours at 25° C.): unchanged; E^0 (2 e^−/1 H^+), extrapolated ([7]; linear extrapolation of one-proton process): 18 mV; E^0 (2 e^−/0 H^+), extrapolated ([7]; linear extrapolation of zero-proton process): −296 mV
O=C1c2cccc(S(=O)(=O)O)c2C(=O)c2c1cccc2S(=O)(=O)O [Entry 3, 9,10-anthraquinone-1,8-disulfonic acid] | 0.182 | 
O=C1C=CC=CC1=O [ortho-benzoquinone] |  | stability in aqueous solution [8]: unstable; solubility [9]: 60 mM (≈ 6.49 mg/mL)
O=C1c2ccccc2C(=O)c2cc(S(=O)(=O)O)ccc21 [Entry 5, 9,10-anthraquinone-2-sulfonic acid] | 0.171 | 
Oc1ccccc1O [catechol, 1,2-ortho-benzohydroquinone] |  | known E^0 ([2]; vs. SHE): 795 mV
2-bromo-1,4-naphthoquinone-3-sulfonic acid [Entry 14] | 0.371 | 
O=C1c2ccccc2C(=O)c2cc(CS(=O)(=O)O)c(CS(=O)(=O)O)cc21 [Entry 6, 9,10-anthraquinone-2,3-dimethanesulfonic acid] | 0.114 | 

The next lines start with results.

Standard Reduction Potential E^0 in Volts vs. the standard hydrogen electrode (SHE) [1] [Volts] | Molecule | also measured
0.094 | O=C1c2ccccc2C(=O)c2c(O)c(S(=O)(=O)O)cc(O)c21 [Entry 9, 1,4-dihydroxy-9,10-anthraquinone-2-sulfonic acid] | 
0.423 | O=C1C=C(S(=O)(=O)O)c2ccccc2C1=O [Entry 11, 1,2-naphthoquinone-4-sulfonic acid] | 
0.116 | O=C1c2ccc(S(=O)(=O)O)c(O)c2C(=O)c2ccc(S(=O)(=O)O)c(O)c21 [Entry 8, 1,5-dihydroxy-9,10-anthraquinone-2,6-disulfonic acid] | 
0.088 | O=C1c2ccccc2C(=O)c2c(O)c(S(=O)(=O)O)c(O)c(O)c21 [Entry 10, 1,3,4-trihydroxy-9,10-anthraquinone-2-sulfonic acid] | 
0.368 | O=C1C(Cl)=C(S(=O)(=O)O)C(=O)c2ccccc21 [Entry 13, 2-chloro-1,4-naphthoquinone-3-sulfonic acid] | 
0.356 | O=C1C=C(S(=O)(=O)O)C(=O)c2ccccc21 [Entry 12, 1,4-naphthoquinone-2-sulfonic acid] | 
